Laboratory results as given in publication PMC9839752, “Formaldehyde reacts with N-terminal proline residues to give bicyclic aminals” (Communications Chemistry, 2023).
Where two headings read alike, the source gives them in different places. Peptide text beside a SMILES is read from it.

Tests used:
[1] = NMR stability of HCHO adducts to HCHO scavengers and pH; format: physicochemical; settings: for stability of HCHO adduct to 1,3-cyclohexanedione (1,3-CHD): 40-fold excess 1,3-CHD, pD 10, analysis period 22 h
Description: To investigate the stability and reversibility of the HCHO adducts (1a + b, 2a, 3a, 4a), the dipeptides were reacted with a 10-fold excess of HCHO at pD 10, then treated with the HCHO scavenger 1,3-cyclohexanedione (1,3-CHD)[14]. […]
(§1) NMR Time Course and Stability – Dipeptides
(§2) The dipeptide (23.3 µmol) was dissolved in D 2O; the pD was adjusted to 10 (corresponding to pH 9.6) using NaOD and DCl (total volume: 1 mL, 23.3 mM stock). HCHO (30.0 mg, 1.0 mmol) was suspended with D2O in a sealed microwave vial and heated until a clear colourless solution was obtained; the pD was then adjusted with NaOD and DCl to 10 (total volume: 3 mL, 1/3 M stock). For time course measurements, the dipeptide stock solutions (100 μL, 2.33 μmol) at pD 10 and D 2O (400 μL) were mixed and recorded. HCHO (70 μL, 23.3 μmol, 10 equivalents) at pD 10 was added and progress was monitored for the indicated time. To investigate the stability of the NMR-observed HCHO adducts, a 40-fold excess with respect to starting material of the HCHO scavenger 1,3-cyclohexanedione (1,3-CHD, 93.2 μL from 1 M stock in D2O) was added.
Additionally, stability studies of the HPLC -purified 2a and the corresponding pentapeptide PEPAK-HCHO adduct were conducted. To achieve a 40-fold excess of HCHO scavengers (46.8 μmol) with respect to peptide starting material, the appropriate volumes of GSH (186.4 μL from 250 mM stock), cysteine (46.6 μL from 1 M stock) or 1,3 -cyclohexanedione (46.6 μL from 1 M stock) were added to the peptide-HCHO adducts (50 μL, 1.17 μmol, 23.3 mM stock in D2O) in 400 μL of D2O, thoroughly mixed and recorded. To test for stability of the adduct in different pH conditions, HPLC purified 2a (45 μL of 23.3 mM stock) was dissolved in 405 μL of 50 mM potassium phosphate buffer (D2O) at pH 5.9, 7.4 and 8.5 (pD 6.3, 7.8 and 8.9), thoroughly mixed and recorded.

[2] = 1H NMR time course of reaction of dipeptides with HCHO; format: physicochemical; settings: dipeptide with 10-fold excess HCHO, pD 10, 1H NMR
Description: Fig. 3 HCHO reacts with an N-terminal proline to form a methylene bridge between an N-terminal nitrogen and the adjacent peptide bond nitrogen. a Products of reactions between HCHO and the dipeptides AzeGlu (n = 1, 1), ProGlu (n = 2, 2), and PipGlu (n = 3, 3). A 10-fold molar excess of aqueous HCHO (410 µmol) was added to each dipeptide (41 µmol).
The reactions of the dipeptides with HCHO (10-fold excess, pD 10) were studied in real time by ^1H NMR (Figs. 3c and S18). […] Dipeptide 2 was slower to react (2a formation rate 0.24 μM s^−1), while 3 was the slowest to react (3a formation rate 0.054 μM s^−1). […]
as §1
as §2, with “added. […]” for “added.”

[3] = target: T1, 4-oxalocrotonate tautomerase (4-OT) (Pseudomonas putida, UniProt Q01468); assay: biochemical
[4] = target: T2, 4-OT (Pseudomonas putida, UniProt Q01468); assay: cell-based
[5] = target: T1, 4-oxalocrotonate tautomerase (4-OT); settings: 4-OT (52.9 µM) pre-incubated with 200 equivalents of HCHO (10.6 mM) 17 h, 37 °C; buffer control complete after 14 min
[6] = test system: H2A; settings: HEK293T, HCHO, CHX (100 µM)
Description: (§3) We then investigated whether the H2B-HCHO adduct can be identified in human HEK293T cells treated with HCHO. […] Given that N-terminal amino acids and their modifications can regulate protein stability by affecting degradation (the N-end rule)[27], we next investigated whether addition of HCHO to cells affects H2B turnover. HEK293T cells were treated with cycloheximide (CHX) to inhibit protein synthesis, with addition of HCHO and protein quantification.
(§4) Figure S26 | Stability of proteins with an N-terminal proline in the presence of HCHO and RNA-Seq analyses. a) HEK293T cells were treated with 120 µM HCHO (or acetone, or MQ water control; 100 mM stock solutions of carbonyl compounds in MQ water) for 14 h. The cells were then treated with 100 µM cycloheximide (CHX; from a 100 mM DMSO stock solution) and were harvested after 3 h.
(§5) Additionally, HEK293T cells were treated with 120 µM HCHO (or acetone, or MQ water control) for 14 h, followed by addition of CHX. 7.5 h after the CHX treatment, a further 180 µM of the carbonyl […]
(§6) (1 picture or pasted object on this page, not shown here)

[7] = test system: H3; settings: HEK293T, HCHO, CHX (100 µM)
Description: as §3, §4, §5, §6

[8] = target: leukotriene A-4 hydrolase (LTA4H) (Homo sapiens, UniProt P09960); settings: HEK293T, CHX (100 µM)
Description: as §3, §4, §5, §6

[9] = test system: H2B; settings: HEK293T, HCHO, >10 h CHX (100 µM)
Description: as §3, §4, §5, §6

[10] = test system: H2A mRNA; settings: HEK293T, HCHO-treated vs untreated, q = 0.043
Description: as §3
(§7) (ab133512). Secondary antibodies used were anti-mouse IgG, HRP-linked Antibody (Cell Signaling, reference 7076), anti-Rabbit IgG (H+L) HRP Conjugate (Promega reference W4011).
(§8) HEK293T cells (0.9x106) were seeded into 6 cm dishes as biological triplicates. The next day, cells were treated with 150 μM HCHO (or MQ water control), followed by another cumulative treatment of 225 μM HCHO (or MQ water control) the day after that. Cells were harvested 4 h af ter the second

[11] = test system: H3 mRNA; settings: HEK293T, HCHO-treated vs untreated, q = 0.034
Description: as §3, §7, §8

[12] = in vitro; settings: human, hek293t cells
Description: as §3, §6

[13] = test system: H2B mRNA; settings: HEK293T, HCHO 150+225 µM vs untreated, q = 0.043
Description: as §3, §4, §5, §6, §7
HEK293T cells (0.9x106) were seeded into 6 cm dishes as biological triplicates. […]

[14] = test system: BL21(DE3) cells
[15] = target: T3, human JmjC KDM KDM4E (Homo sapiens, UniProt B2RXH2); assay: KDM4E-catalysed H3K9Me3 peptide demethylation, MALDI MS; format: biochemical; settings: 800 μM NOG instead of 2OG, 24 h
T3 construct: made in house; host or cells: E. coli BL21(DE3)
T3 sequence (B2RXH2 with tags, fused parts or gaps): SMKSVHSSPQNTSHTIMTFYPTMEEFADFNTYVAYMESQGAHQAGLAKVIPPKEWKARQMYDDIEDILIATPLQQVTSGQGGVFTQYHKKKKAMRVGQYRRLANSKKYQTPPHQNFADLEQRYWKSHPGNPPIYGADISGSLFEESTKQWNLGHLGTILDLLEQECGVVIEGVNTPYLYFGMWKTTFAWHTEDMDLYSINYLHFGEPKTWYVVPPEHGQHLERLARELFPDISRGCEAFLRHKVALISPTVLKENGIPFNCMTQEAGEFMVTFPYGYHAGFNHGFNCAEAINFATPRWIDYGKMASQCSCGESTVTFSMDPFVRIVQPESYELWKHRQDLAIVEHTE

[16] = target: T2, 4-OT; assay: 4-OT absorbance assay (320 nm), kinetic parameters; format: biochemical; settings: substrate acetaldehyde, 375 µM trans-β-nitrostyrene, 10 µM 4-OT, pH 7.4

T2 sequence (Q01468 2-63 limits assumed): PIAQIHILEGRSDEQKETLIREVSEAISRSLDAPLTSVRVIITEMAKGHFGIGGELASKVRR
T1 sequence (Q01468 2-63): as the sequence (Q01468 2-63 limits assumed) above
Chain of leukotriene A-4 hydrolase (LTA4H) (P09960 2-611 limits assumed): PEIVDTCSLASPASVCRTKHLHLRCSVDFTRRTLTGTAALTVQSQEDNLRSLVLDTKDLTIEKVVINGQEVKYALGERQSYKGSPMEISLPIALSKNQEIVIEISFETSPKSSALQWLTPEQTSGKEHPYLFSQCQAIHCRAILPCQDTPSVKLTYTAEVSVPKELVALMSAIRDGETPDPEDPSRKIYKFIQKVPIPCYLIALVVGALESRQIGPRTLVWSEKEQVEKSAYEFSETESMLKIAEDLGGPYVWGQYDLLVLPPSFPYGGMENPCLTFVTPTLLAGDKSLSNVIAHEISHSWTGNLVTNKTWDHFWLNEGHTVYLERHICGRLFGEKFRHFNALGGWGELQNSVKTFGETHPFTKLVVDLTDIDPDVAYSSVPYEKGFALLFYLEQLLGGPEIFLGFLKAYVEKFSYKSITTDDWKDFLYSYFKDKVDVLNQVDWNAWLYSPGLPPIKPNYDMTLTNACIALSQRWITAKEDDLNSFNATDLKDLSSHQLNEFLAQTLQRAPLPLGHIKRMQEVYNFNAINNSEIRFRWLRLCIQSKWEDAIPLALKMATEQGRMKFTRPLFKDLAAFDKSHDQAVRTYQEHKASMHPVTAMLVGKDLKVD

Q: Which “stability of HCHO adduct to 1,3-cyclohexanedione (1,3-CHD)” value (from here on “stability of HCHO adduct”) [1] does the source give for `O=C(O)CC[C@@H](C(=O)O)N1CN2CC[C@H]2C1=O` [1a] here?
A: Its value is “underwent 1,3-CHD-enabled reaction to give 1”.

Q: What about the “formation rate of HCHO adduct” value [2] of the same compound?
A: Its value is over 1.73 µM/s.

Q: With `O=C(O)CC[C@H](NC(=O)[C@@H]1CCN1CO)C(=O)O` [1b] as the compound, how does the “stability of HCHO adduct” value [1] read?
A: Its value is “underwent 1,3-CHD-enabled reaction to give 1”.

Q: For `O=C(O)CC[C@@H](C(=O)O)N1CN2CCC[C@H]2C1=O` [2a], which “stability of HCHO adduct” value [1] is on record?
A: Its value is “relatively stable”.

Q: And the “stability across a biologically relevant pH range” value ([1]; pH 5.9, 7.4 and 8.5)?
A: The value was “apparently stable”.

Q: And the “stability in the presence of HCHO scavengers cysteine and GSH” value ([1]; scavengers in 40-fold excess)?
A: The value was “apparently stable”.

Q: And the “formation rate of HCHO adduct” value [2]?
A: Its value is 0.24 µM/s.

Q: Which results are given for `O=C(O)CC[C@@H](C(=O)O)N1CN2CCCC[C@H]2C1=O` [3a]?
A: stability of HCHO adduct to 1,3-cyclohexanedione (1,3-CHD) [1]: relatively stable; formation rate of HCHO adduct [2]: 0.054 µM/s

Q: With `C[C@H]1C(=O)N([C@@H](CCC(=O)O)C(=O)O)CN1CO` [4a] as the compound, how does the “stability of HCHO adduct” value [1] read?
A: The value was “hemiaminal group of 4a was lost to give 4b”.

Q: With `C=O` [HCHO, Formaldehyde] as the compound, how does the IC50 [3] read?
A: Its IC50 is under 10000 µM.

Q: And the EC50 [4]?
A: Its EC50 is about 350 µM.

Q: What about the “time to near-complete substrate conversion” value [5] of the same compound?
A: The value was over 72 min.

Q: What about the “H2A levels after prolonged CHX treatment” value [6] of the same compound?
A: The value was “higher levels”.

Q: What about the “H3 levels after prolonged CHX treatment” value [7] of the same compound?
A: The value was “higher levels”.

Q: And the “HCHO-dependent effect on LTA4H stability” value [8]?
A: The value was “no evidence for a HCHO-dependent effect on its stability”.

Q: And the “H2B levels after prolonged CHX treatment” value [9]?
A: Its value is “apparently higher H2B levels”.

Q: What about the “H2A mRNA level, fold less in untreated cells” value [10] of the same compound?
A: Its value is 0.33 fold.

Q: What about the “H3 mRNA level, fold less in untreated cells” value [11] of the same compound?
A: Its value is 0.42 fold.

Q: And the MNTC [12]?
A: Its MNTC is over 200 µM.

Q: And the “H2B mRNA level, fold less in untreated cells” value [13]?
A: The value was 0.37 fold.

Q: What about the “effect on cell proliferation” value ([14]; 350 μM HCHO) of the same compound?
A: Its value is “did not inhibit”.

Q: And the “effect on cell proliferation” value ([14]; 700 μM HCHO)?
A: The value was “only mildly inhibited”.

Q: With `O=C(O)CNC(=O)C(=O)O` [N-oxalylglycine] as the compound, how does the “effect on H3K9Me3 demethylation and +12 Da H2B adduct formation” value [15] read?
A: Its value is “abolished”.

Q: Which Km [16] does the source give for `CC=O` [acetaldehyde] here?
A: The Km was 74 mM.

Q: Which “formation rate of HCHO adduct” value [2] does the source give for `C[C@H](N)C(=O)N[C@@H](CCC(=O)O)C(=O)O` [compound 4, AlaGlu] (H-Ala-Glu-OH) here?
A: Its value is “did not react to give a detected product”.
